Reference: patent publication US5736629A, “Herbicide resistant rice” (priority 1997, dated 1998)

Key:
Type in all cases: in vivo
[1] = system: resistant progeny row (rice line ATCC 75295); test: Open-field spray screen of anther-culture progeny rows, resistant row
Description: This resistant line was derived by conducting anther culture on the F2 progeny of a backcross made by pollinating a rice plant of the variety "Lemont" with pollen from the rice variety "Mercury," followed by a backcross using pollen from this hybrid to pollinate a plant of the variety "Mercury." The resulting backcross is described as Mercury//Lemont/Mercury. Anthers collected from a plant resulting from this backcross were plated on callus induction medium, and the resulting calli were transferred to plant regeneration media. The procedures used were generally as described in Croughan and Chu, "Rice (Oryza saliva L.): Establishment of Callus Cultures and the Regeneration of Plants" in Bajaj (Ed.), "Biotechnology in Agriculture and Forestry," pp. 19-37 (1991). Several regenerated plants were produced and grown to maturity in a greenhouse to produce seed. Progeny seed were planted in an open field, and herbicide applications were made using a garden tractor-mounted spray rig.
A set of 4,193 progeny rows derived from this anther culture procedure were planted in an open field, and were sprayed with 4 ounces per acre of Pursuit (1.00 ounce active ingredient imazethapyr per acre) at the four-leaf stage of seedling development. […]

[2] = system: Non-Resistant Control rice plants (check varieties); test: Greenhouse test of plant vigor after imazethapyr, non-resistant controls; conditions: for Rating of rice plant vigor: 36 days after treatment at 2-3 leaf stage, 10-point scale, 0 = dead plant, 10 = no visible injury
Source text: (§1) In the greenhouse tests, pots were planted with F3 seed from crosses between the two lines. Each pot was planted with seed from a single panicle from a single plant; each pot was therefore the equivalent of a headrow. A total of 140 pots were planted in this manner, along with 40 pots of various non-resistant genotypes for comparison. Imazethapyr was applied at the 2-3 leaf stage two weeks after planting, at rates equivalent to 0.063 lb. active ingredient (a.i.) per acre, 0.125 lb. a.i./acre, and 0.313 lb. a.i./acre.
(§2) Table 2 summarizes measurements taken 36 days after spraying rice at the 2-3 leaf stage of development.

[3] = system: rice line ATCC 97523 (second resistance mechanism only); test: Greenhouse test of plant vigor after imazethapyr, ATCC 97523; conditions: for Rating of rice plant vigor: 36 days after treatment at 2-3 leaf stage, 10-point scale, 0 = dead plant, 10 = no visible injury
Source text: as §1, §2

CCc1cnc(C2=NC(C)(C(C)C)C(=O)N2)c(C(=O)O)c1 (racemic) [imazethapyr, (±)-2-[4,5-dihydro-4-methyl-4-(1-methylethyl)-5-oxo-1H-imidazol-2-yl]-5-ethyl-3-pyridinecarboxylic acid]
Symptoms (in words) ([1]; 4 ounces per acre Pursuit (1.00 ounce a.i. per acre), four-leaf stage, open field): no apparent symptoms | Symptoms (in words) ([1]; second spray 8 ounces/acre Pursuit (2.00 ounce a.i. per acre), four weeks after the initial treatment): no apparent symptoms | Rating of rice plant vigor ([2]; 0.063 lb. a.i./acre): 0.33 ± 0.18 | Rating of rice plant vigor ([2]; 0.125 lb. a.i./acre): 0.12 ± 0.06 | Rating of rice plant vigor ([2]; 0.313 lb. a.i./acre): 0.15 ± 0.15 | Mortality ([2]; check varieties, all treatments (0.063, 0.125, 0.313 lb. a.i./acre)): 100% | Effect on plants (in words) ([2]; non-resistant rice, 0.063 pounds active ingredient per acre): completely killed | Effect on plants (in words) ([2]; nonresistant controls, each of the nonzero rates (0.063, 0.125, 0.313 lb. a.i./acre)): killed | Rating of rice plant vigor ([3]; 0.063 lb. a.i./acre): 9.01 ± 0.59 | Rating of rice plant vigor ([3]; 0.125 lb. a.i./acre): 5.71 ± 0.93 | Rating of rice plant vigor ([3]; 0.313 lb. a.i./acre): about 4.0 | Rating of rice plant vigor ([3]; 0.313 lb. a.i./acre, listed as Imazethapyr): 4.00 ± 0.32 | Time to visible resumption of growth after herbicide application ([3]; ATCC 97523 plants, greenhouse test): about two weeks | Visible injury (in words) ([3]; plants with only the second resistance mechanism, 0.313 lb a.i./acre, 36 days after treatment): substantial injury
